Laboratory results as given in patent publication US11274106B2, “Topoisomerase inhibitors with antibacterial and anticancer activity” (THE BOARD OF TRUSTEES OF THE UNIVERSITY OF ILLINOIS, priority 2017, dated 2022).
Converted amounts (≈) assume the structure as drawn. Like-named read-outs stand apart in the source and are kept apart here.

Columns and labels:
[1] = test system: MDA-MB-231 triple negative breast cancer cells; assay: Antiproliferative SRB assay, MDA-MB-231; type: cell-based; conditions: for IC50: mean ± SEM
Procedure: FIG. 1. […] Cell death measured by SRB assay after 72 hour of compound exposure (n≥3 biological replicates, error bars show SEM). IC50 values given as mean±SEM from ≥3 biological replicates.
To investigate the feasibility of developing a class of antitumor antibiotics based upon the DNM scaffold, the ability of the DNM to exert an antiproliferative effect against MDA-MB-231 breast cancer cells was evaluated.

Top2cc = target: T1, Top2cc (Homo sapiens, UniProt P11388); assay: ICE assay for Top2α-DNA complexes in H460 cells; type: cell-based; conditions: 50 μM
T1 construct: endogenous in cells; host or cells: H460
Excerpt: FIG. 3. DNM derivatives are dual Top1/Top2 inhibitors with different modes of inhibition. (a) Inhibition of decatenating ability of Top2α with increasing concentrations of ETP, 6DNM-NH3, 6DNM-Pyr, and Ph-6DNM-NH3. K, kinetoplast DNA; OC, open circular; R, relaxed. (b) Inhibition of relaxing ability of Top1 with increasing concentrations of CPT, 6DNM-NH3, 6DNM-Pyr, and Ph-6DNM-NH3. R, relaxed; S, supercoiled. (c) Detection of Top2a-DNA using the ICE Assay. Genomic DNA ([…]) of H460 cells treated with drugs (50 μM, 30 min) was applied to nitrocellulose membrane and immunoblotted for Top2a. (d) Detection of Top1-DNA adducts using ICE Assay. Same procedure as (c) using 1 μg of DNA. (e) Inhibition of ETP-induced poisoning of Top2a. H460 cells treated with indicated concentrations of inhibitor for 30 min prior to treatment with ETP (50 μM). Detection of Top2α as in (c).
The in vivo complex of enzyme (ICE) assay can be used to distinguish poisons from catalytic inhibitors. The ICE assay consists of isolating the genomic DNA of cells treated with small molecules in a manner the preserves covalent DNA-protein complexes and applying it to nitrocellulose membranes. Because topoisomerase poisons stabilize the cleavage complexes, DNA-protein complexes can be detected by immunoblotting for specific topoisomerases, whereas catalytic inhibitors produce no such result. To determine if DNM derivatives are acting as poisons or catalytic inhibitors, H460 human lung cells were exposed to 50 μM of the Top2 poison ETP, Ph-6DNM-NH3, 6DNM-NH3, and 6DNM-Pyr and assessed for their ability to stabilize Top2cc. […] In a similar fashion, next investigated was the mode of Top1 inhibition using the ICE assay (FIG. 3b).

E. coli = assay: Antibacterial MIC, microbroth dilution, E. coli; type: cell-based; conditions: for MIC: Escherichia coli
Procedure: (§1) To investigate this possibility, the antibacterial effects of the DNM derivatives was assessed against strains of E. coli, S. aureus, and MRSA using the microbroth dilution method (Table 2).

S. aureus = assay: Antibacterial MIC, microbroth dilution, S. aureus; type: cell-based; conditions: for MIC: Staphylococcus aureus
Procedure: as §1

MRSA = assay: Antibacterial MIC, microbroth dilution, MRSA; type: cell-based, S. aureus; conditions: for MIC: Staphylococcus aureus, MRSA, microbroth dilution
Procedure: as §1

BT-474 = assay: Antiproliferative SRB assay, BT-474; type: cell-based; conditions: Homo sapiens, BT-474, 72 h, Breast cancer, mean ± SEM
Excerpt: (§2) Topoisomerase inhibitors such as DOX are used as single agent and in combination therapy to treat a wide-range of cancer types.

HCT-116 = assay: Antiproliferative SRB assay, HCT-116; type: cell-based; conditions: Homo sapiens, HCT-116, 72 h, Colon cancer, mean ± SEM
Excerpt: as §2

HeLa = assay: Antiproliferative SRB assay, HeLa; type: cell-based; conditions: Homo sapiens, 72 h, Ovarian cancer (footnote e), mean ± SEM
Excerpt: as §2

ES-2 = assay: Antiproliferative SRB assay, ES-2; type: cell-based; conditions: Homo sapiens, ES-2, 72 h, Cervical cancer (footnote f), mean ± SEM
Excerpt: as §2

IMR32 = assay: Antiproliferative SRB assay, IMR32; type: cell-based; conditions: Homo sapiens, IMR-32, 72 h, Neuroblastoma, mean ± SEM
Excerpt: as §2

H460 = assay: Antiproliferative SRB assay, H460; type: cell-based; conditions: Homo sapiens, NCI-H460, 72 h, Lung cancer, mean ± SEM
Excerpt: as §2

HOS = assay: Antiproliferative SRB assay, HOS; type: cell-based; conditions: Homo sapiens, 72 h, Osteosarcoma, mean ± SEM
Excerpt: as §2

Jurkat = assay: Cell viability Alamar Blue assay, Jurkat; type: cell-based; conditions: Homo sapiens, 72 h, Leukemia, mean ± SEM
Excerpt: as §2

HL-60 = assay: Cell viability Alamar Blue assay, HL-60; type: cell-based; conditions: Homo sapiens, HL-60, 72 h, Leukemia, mean ± SEM
Excerpt: as §2

panel of cancer cells = assay: Average over panel of 10 cancer cell lines; type: cell-based; conditions: 72 hour, read-out: Average (mean) IC50 over the cell line panel
Excerpt: as §2

[2] = Homo sapiens, MDA-MB-231, 72 h, SRB assay, 72 hour compound exposure, read-out: MDA-MB-231 IC50

T1 sequence (P11388 whole entry): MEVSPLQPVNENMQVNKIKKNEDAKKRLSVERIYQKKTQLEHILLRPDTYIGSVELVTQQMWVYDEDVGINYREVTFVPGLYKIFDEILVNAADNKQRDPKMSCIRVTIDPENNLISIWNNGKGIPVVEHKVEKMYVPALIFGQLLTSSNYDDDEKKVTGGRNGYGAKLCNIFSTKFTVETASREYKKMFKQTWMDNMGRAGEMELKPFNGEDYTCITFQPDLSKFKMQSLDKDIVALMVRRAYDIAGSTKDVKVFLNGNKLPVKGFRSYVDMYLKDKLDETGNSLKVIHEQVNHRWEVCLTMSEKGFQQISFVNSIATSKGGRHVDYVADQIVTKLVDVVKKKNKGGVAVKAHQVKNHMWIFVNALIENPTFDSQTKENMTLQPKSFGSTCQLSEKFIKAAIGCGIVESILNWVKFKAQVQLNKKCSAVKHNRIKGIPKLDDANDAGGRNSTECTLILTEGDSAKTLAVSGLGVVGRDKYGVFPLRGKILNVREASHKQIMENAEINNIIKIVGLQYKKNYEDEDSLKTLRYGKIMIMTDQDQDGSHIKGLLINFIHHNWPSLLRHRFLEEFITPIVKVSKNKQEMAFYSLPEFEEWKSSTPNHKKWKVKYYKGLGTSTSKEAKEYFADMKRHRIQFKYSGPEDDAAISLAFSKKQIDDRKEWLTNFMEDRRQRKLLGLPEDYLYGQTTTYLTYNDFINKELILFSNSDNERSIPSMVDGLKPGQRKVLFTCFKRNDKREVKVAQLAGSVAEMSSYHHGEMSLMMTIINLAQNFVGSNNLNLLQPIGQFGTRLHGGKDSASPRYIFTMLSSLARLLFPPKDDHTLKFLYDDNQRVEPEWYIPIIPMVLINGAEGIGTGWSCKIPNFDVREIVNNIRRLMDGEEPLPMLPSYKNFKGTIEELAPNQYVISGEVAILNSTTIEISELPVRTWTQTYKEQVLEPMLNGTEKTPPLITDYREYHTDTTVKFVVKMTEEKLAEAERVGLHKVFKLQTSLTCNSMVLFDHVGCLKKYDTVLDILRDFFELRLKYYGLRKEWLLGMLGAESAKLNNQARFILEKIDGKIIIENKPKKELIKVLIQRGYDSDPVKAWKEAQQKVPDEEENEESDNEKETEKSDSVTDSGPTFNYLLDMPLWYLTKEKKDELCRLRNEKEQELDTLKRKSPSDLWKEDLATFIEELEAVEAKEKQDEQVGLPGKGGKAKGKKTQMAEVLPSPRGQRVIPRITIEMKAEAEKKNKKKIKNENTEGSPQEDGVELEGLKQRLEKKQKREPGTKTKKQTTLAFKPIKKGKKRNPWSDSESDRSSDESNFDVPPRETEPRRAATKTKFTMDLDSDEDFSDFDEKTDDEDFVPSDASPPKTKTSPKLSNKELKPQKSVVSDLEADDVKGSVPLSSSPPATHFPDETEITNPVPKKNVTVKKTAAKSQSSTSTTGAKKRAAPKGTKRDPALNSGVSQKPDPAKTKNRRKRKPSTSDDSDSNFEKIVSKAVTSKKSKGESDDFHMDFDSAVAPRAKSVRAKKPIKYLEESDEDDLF

SMILES | IC50 [1, 2] | MIC (E. coli) | MIC (S. aureus) | MIC (MRSA) | further results
COc1cc([C@@H]2c3cc4c(cc3[C@@H](O[C@@H]3O[C@@H]5CO[C@@H](C)O[C@H]5[C@H](O)[C@H]3O)[C@H]3COC(=O)[C@H]23)OCO4)cc(OC)c1O [ETP, etoposide, reference compound] |  |  |  |  | Antiproliferative effect against MDA-MB-231 cells ([1]; FIG. 1, SRB assay, 72 hour): sensitive; Accumulation of Top2cc (ICE assay) (Top2cc): resulted in the accumulation of Top2cc
Cc1cc(=O)n(C)c2c3c4c(cc12)c(C)cc(=O)n4C(C(N)=O)O3 (stereo not shown) [Compound 4] | 8300 ± 700 nM | > 16 µg/mL | > 16 µg/mL | 4 µg/mL (≈ 12.3 µM) | 
Cc1cc(=O)n(C)c2c3c4c(cc12)c(C)cc(=O)n4C(C(=O)O)O3 (stereo not shown) [Compound 5] | 3600 ± 600 nM | > 32 µg/mL | > 32 µg/mL | 2 µg/mL (≈ 6.13 µM) | 
Cc1cc(=O)n(C)c2c3c4c(cc12)c(C)cc(=O)n4C(CN1CCCCC1)CO3 (stereo not shown) [Compound 21] | 17 ± 1 nM | 4 µg/mL (≈ 10.2 µM) | 0.5 µg/mL (≈ 1.27 µM) |  | IC50 ([1]; Homo sapiens, MDA-MB-231, 72 h, Breast cancer, SRB assay, read-out: 72 hour IC50, MDA-MB-231): 17 ± 1 nM; IC50 (BT-474): 90 ± 10 nM; IC50 (HCT-116): 8 ± 1 nM; IC50 (HeLa): 46 ± 2 nM; IC50 (ES-2): 22 ± 6 nM; IC50 (IMR32): 6 ± 1.6 nM; IC50 (H460): 11 ± 2 nM; IC50 (HOS): 21 ± 3 nM; IC50 (Jurkat): 33 ± 4 nM; IC50 (HL-60): 55 ± 11 nM; IC50 (panel of cancer cells): 31 nM
Cc1cc(=O)n2c3c(c4c(cc13)c1ccccc1c(=O)n4C)OCC2CN (stereo not shown) [Compound 16] |  |  |  |  | IC50 ([1]; SRB assay, 72 hour compound exposure, read-out: MDA-MB-231 IC50): 30 ± 6 nM; E. coli MIC (E. coli): 0.25 µg/mL; S. aureus MIC (S. aureus): 1 µg/mL
CCOC(=O)C1Oc2c3c(cc4c(C)cc(=O)n1c24)c(C)cc(=O)n3C (stereo not shown) [Compound 3] | > 10000 nM | > 16 µg/mL | > 16 µg/mL | 0.5 µg/mL (≈ 1.41 µM) | Activity against MRSA (MRSA): remains effective against MRSA
O=C(O)c1cn(C2CC2)c2cc(N3CCNCC3)c(F)cc2c1=O [ciprofloxacin, reference compound] |  |  |  |  | Antiproliferative effect against MDA-MB-231 cells ([1]; doses as high as 50 μM): only minimal effects

The next lines start with results.

IC50 [1, 2] | MIC (E. coli) | MIC (S. aureus) | MIC (MRSA) | SMILES | further results
> 10000 nM | > 32 µg/mL | > 16 µg/mL | 16 µg/mL (≈ 45.2 µM) | Cc1cc(=O)n(C)c2c3c4c(cc12)c(C)cc(=O)n4C(CC(=O)O)CO3 (stereo not shown) [Compound 6] | 
220 ± 60 nM | 4 µg/mL (≈ 12.3 µM) | 4 µg/mL (≈ 12.3 µM) |  | Cc1cc(=O)n(CCN)c2c3c4c(cc12)c(C)cc(=O)n4CCO3 [Compound 12] | 
> 10000 nM | > 16 µg/mL | 16 µg/mL (≈ 49 µM) | 0.25 µg/mL (≈ 0.766 µM) | Cc1cc(=O)n(C)c2c3c4c(cc12)c(C)cc(=O)n4C(CO)CO3 (stereo not shown) [Compound 7] | Activity against MRSA (MRSA): remains effective against MRSA
930 ± 400 nM | > 16 µg/mL | 2 µg/mL (≈ 6.02 µM) | 0.5 µg/mL (≈ 1.5 µM) | Cc1cc(=O)n2c3c(c4c(cc13)c1ccccc1c(=O)n4C)OCC2 [Compound 14] | 
1600 ± 600 nM | > 16 µg/mL | > 16 µg/mL |  | Cc1cc(=O)n(-c2ccccc2)c2c3c4c(cc12)c(C)cc(=O)n4C(CN)CO3 (stereo not shown) [Compound 13] | 
